This is an account of results in US20230265151A1, “GIP/GLP1 CO-AGONIST COMPOUNDS” (priority 2020, published 2023).

In general, Emax refers to the size of the effect at its maximum, as opposed to the concentration needed. What is called EC50 is the concentration giving half of the maximal effect.

Holding throughout (assay type): cell-based
For test [1], the target named is T1, hGIPR (Homo sapiens, UniProt P48546).
T1 construct: expressed in transfected cells
T1 sequence (P48546 22-466): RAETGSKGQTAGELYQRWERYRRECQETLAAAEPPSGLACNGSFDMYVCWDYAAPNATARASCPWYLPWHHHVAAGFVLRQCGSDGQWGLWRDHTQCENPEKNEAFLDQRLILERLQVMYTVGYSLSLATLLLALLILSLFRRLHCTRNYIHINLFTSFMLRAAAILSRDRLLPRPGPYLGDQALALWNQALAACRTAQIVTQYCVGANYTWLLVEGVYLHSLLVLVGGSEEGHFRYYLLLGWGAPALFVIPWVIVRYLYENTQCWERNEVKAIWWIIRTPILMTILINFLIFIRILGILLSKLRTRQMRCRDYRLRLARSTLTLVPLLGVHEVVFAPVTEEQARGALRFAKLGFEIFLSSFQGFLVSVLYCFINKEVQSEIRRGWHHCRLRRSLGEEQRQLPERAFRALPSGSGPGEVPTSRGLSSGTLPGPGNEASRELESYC
Put plainly: Functional cAMP formation (HTRF) in HEK-293 clonal cells expressing hGIPR, 0.1% bovine casein, without or with 1.0% human serum albumin. The following applies: for Emax: percent of maximal response to GIP(1-42)NH2, read-out: hGIPR Emax, % ± SEM; for EC50: cAMP, 0.1% bovine casein (no human serum albumin), geometric mean, read-out: hGIPR EC50, nM (SEM, n). The gist of the method: (§1)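 Cells were stimulated with peptide for 30 min at 37° C, then lysed in buffer carrying cAMP-d2 and anti-cAMP Eu3+-cryptate for a competitive HTRF read after at least 60 min at room temperature. The 665/620 nm ratio was converted to nM cAMP against a standard curve.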
Background: Changes in cAMP serve as a functional read-out for many G protein-coupled receptors.

In test [2] the target is T2, hGCGR (Homo sapiens, UniProt P47871).
T2 construct: expressed in transfected cells
Put plainly: Functional cAMP formation (HTRF) in HEK-293 clonal cells expressing hGCGR, 0.1% bovine casein, without or with 1.0% human serum albumin. The following applies: geometric mean, read-out: hGCGR EC50, nM (SEM, n). Summed up:
as §1

Test [3] addresses hGLP-1R (Homo sapiens, UniProt P43220). In words: Functional cAMP formation (HTRF) in HEK-293 clonal cells expressing hGLP-1R, 0.1% bovine casein, without or with 1.0% human serum albumin. Also on record: expressed in transfected cells. The following applies: for Emax: read-out: hGLP-1R Emax, % ± SEM; for EC50: cAMP, 0.1% bovine casein (no human serum albumin), geometric mean, read-out: hGLP-1R EC50, nM (SEM, n). The gist of the method: as §1

Where [4] appears, read: HEK293, 0.1% bovine casein and 1.0% human serum albumin, 37° C.
Setting [5] is: 0.1% bovine casein and 1.0% human serum albumin, 37° C.
[6] abbreviates: cAMP, 37° C., 0.1% bovine casein (no human serum albumin).
Setting [7] is: HEK293, 0.1% bovine casein and 1.0% human serum albumin, 37° C., percent of maximal response to GLP-1(7-36)NH2.
Setting [8] is: HEK293, cAMP, 37° C., 0.1% bovine casein, percent of maximal response to GLP-1(7-36)NH2, arithmetic mean.

Read-outs that look alike come from different tables or passages of the source. *1 amine or outer side, *2 acyl side, *3 side chain or, on linkers, in order; H or OH if unused. Where a SMILES comes first, the peptide text is derived from it. Side-chain parts run from the residue outwards. [ ]: non-standard residue; d: D form. The star is where a group is joined. αMePhe(2-F) = C[C@](N)(Cc1ccccc1F)C(=O)O; γGlu = O=C(O)[C@H](CCC(=O)[*:2])N[*:1]; C14 diacid = O=C(O)CCCCCCCCCCCCC(=O)*; αMeY = C[C@](N)(Cc1ccc(O)cc1)C(=O)O; 4Pal = N[C@@H](Cc1ccncc1)C(=O)O; αMeL = CC(C)C[C@](C)(N)C(=O)O; Orn = NCCC[C@H](N)C(=O)O; AEEA = NCCOCCOCC(=O)O; Aib = CC(C)(N)C(=O)O

Sequence of hGLP-1R (P43220 24-463): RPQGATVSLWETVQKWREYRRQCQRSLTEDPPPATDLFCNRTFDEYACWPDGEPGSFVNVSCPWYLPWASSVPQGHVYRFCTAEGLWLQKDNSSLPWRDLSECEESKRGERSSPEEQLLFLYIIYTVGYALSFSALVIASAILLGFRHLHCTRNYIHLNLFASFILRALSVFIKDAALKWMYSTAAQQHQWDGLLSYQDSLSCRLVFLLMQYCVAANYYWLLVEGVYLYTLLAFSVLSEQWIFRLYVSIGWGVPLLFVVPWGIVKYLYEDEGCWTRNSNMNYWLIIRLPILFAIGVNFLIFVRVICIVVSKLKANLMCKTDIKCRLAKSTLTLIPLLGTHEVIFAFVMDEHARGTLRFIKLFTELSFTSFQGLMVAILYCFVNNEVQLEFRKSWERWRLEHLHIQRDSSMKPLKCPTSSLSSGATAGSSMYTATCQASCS
T2 sequence (P47871 26-477): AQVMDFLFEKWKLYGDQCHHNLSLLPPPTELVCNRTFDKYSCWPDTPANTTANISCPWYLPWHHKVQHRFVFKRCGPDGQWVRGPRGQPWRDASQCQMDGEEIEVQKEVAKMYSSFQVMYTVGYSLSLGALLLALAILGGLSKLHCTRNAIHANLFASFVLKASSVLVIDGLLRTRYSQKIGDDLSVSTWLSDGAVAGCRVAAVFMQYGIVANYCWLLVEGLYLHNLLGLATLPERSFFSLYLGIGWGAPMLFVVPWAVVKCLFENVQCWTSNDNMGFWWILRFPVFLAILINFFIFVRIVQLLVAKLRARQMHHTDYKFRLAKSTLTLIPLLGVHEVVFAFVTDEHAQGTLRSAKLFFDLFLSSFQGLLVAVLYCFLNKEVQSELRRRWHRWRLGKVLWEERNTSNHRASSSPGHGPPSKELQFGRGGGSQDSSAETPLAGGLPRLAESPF

Take `CC[C@H](C)[C@H](NC(=O)[C@H](CCCN)NC(=O)[C@H](CC(=O)O)NC(=O)[C@H](CC(C)C)NC(=O)[C@](C)(CC(C)C)NC(=O)[C@@H](NC(=O)[C@H](CO)NC(=O)[C@H](Cc1ccc(OC)cc1)NC(=O)[C@H](CC(=O)O)NC(=O)[C@H](CO)NC(=O)[C@@H](NC(=O)[C@](C)(Cc1ccccc1F)NC(=O)[C@@H](NC(=O)CNC(=O)[C@H](CCC(=O)O)NC(=O)C(C)(C)NC(=O)[C@@H](N)Cc1ccc(O)cc1)[C@@H](C)O)[C@@H](C)O)[C@@H](C)CC)C(=O)N[C@@H](C)C(=O)N[C@@H](CCC(N)=O)C(=O)NC(C)(C)C(=O)N[C@@H](CCC(=O)O)C(=O)N[C@@H](Cc1ccccc1)C(=O)N[C@H](C(=O)N[C@@H](CCCCNC(=O)COCCOCCNC(=O)COCCOCCNC(=O)CC[C@H](NC(=O)CCCCCCCCCCCCC(=O)O)C(=O)O)C(=O)N[C@@](C)(Cc1ccc(O)cc1)C(=O)N[C@@H](CC(C)C)C(=O)N[C@H](C(=O)N[C@@H](CCCCNC(=O)COCCOCCNC(=O)COCCOCCNC(=O)CC[C@H](NC(=O)CCCCCCCCCCCCC(=O)O)C(=O)O)C(=O)NCC(=O)NCC(=O)N1CCC[C@H]1C(=O)N[C@@H](CO)C(=O)N[C@@H](CO)C(=O)NCC(=O)N[C@@H](C)C(=O)N1CCC[C@H]1C(=O)N1CCC[C@H]1C(=O)N1CCC[C@H]1C(=O)N[C@@H](CO)C(N)=O)[C@@H](C)CC)[C@@H](C)CC` [Example 262] (H-Y[Aib]EGT[αMePhe(2-F)]TSDY(Me)SI[αMeL]LD[Orn]IAQ[Aib]EFIK([AEEA-AEEA-γGlu-C14 diacid])[αMeY]LIK([AEEA-AEEA-γGlu-C14 diacid])GGPSSGAPPPS-NH2; N-terminus assumed): the Emax in test [1] (setting [4]) turned out to be 79.7%; in test [1] (HEK293, cAMP, 37° C., 0.1% bovine casein, arithmetic mean), 89.8%; in test [3] (setting [7]) it was 115%; in test [3] (setting [8]), 105%. The EC50 in test [2] (setting [5]) and in test [2] (setting [6]) was above 9950 nM in each case.

In the case of `CC[C@H](C)[C@H](NC(=O)[C@H](CCCN)NC(=O)[C@H](CC(=O)O)NC(=O)[C@H](CC(C)C)NC(=O)[C@](C)(CC(C)C)NC(=O)[C@@H](NC(=O)C(C)(C)NC(=O)[C@H](Cc1ccc(O)cc1)NC(=O)[C@H](CC(=O)O)NC(=O)[C@H](CO)NC(=O)[C@@H](NC(=O)[C@](C)(Cc1ccccc1F)NC(=O)[C@@H](NC(=O)CNC(=O)[C@H](CCC(=O)O)NC(=O)C(C)(C)NC(=O)[C@@H](N)Cc1ccc(O)cc1)[C@@H](C)O)[C@@H](C)O)[C@@H](C)CC)C(=O)N[C@@H](C)C(=O)N[C@@H](CCC(N)=O)C(=O)NC(C)(C)C(=O)N[C@@H](CCCCNC(=O)COCCOCCNC(=O)COCCOCCNC(=O)CC[C@H](NC(=O)CCCCCCCCCCCCC(=O)O)C(=O)O)C(=O)N[C@@H](Cc1ccccc1)C(=O)N[C@H](C(=O)N[C@H](CCC(=O)O)C(=O)N[C@@](C)(Cc1ccc(O)cc1)C(=O)N[C@@H](CC(C)C)C(=O)N[C@H](C(=O)N[C@@H](CCCCNC(=O)COCCOCCNC(=O)COCCOCCNC(=O)CC[C@H](NC(=O)CCCCCCCCCCCCC(=O)O)C(=O)O)C(=O)NCC(=O)NCC(=O)N1CCC[C@H]1C(=O)N[C@@H](CO)C(=O)N[C@@H](CO)C(=O)NCC(=O)N[C@@H](C)C(=O)N1CCC[C@H]1C(=O)N1CCC[C@H]1C(=O)N1CCC[C@H]1C(=O)N[C@@H](CO)C(N)=O)[C@@H](C)CC)[C@@H](C)CC` [Example 234] (H-Y[Aib]EGT[αMePhe(2-F)]TSDY[Aib]I[αMeL]LD[Orn]IAQ[Aib]K([AEEA-AEEA-γGlu-C14 diacid])FI[dE][αMeY]LIK([AEEA-AEEA-γGlu-C14 diacid])GGPSSGAPPPS-NH2; N-terminus assumed), the Emax was 84.4% in test [1] (setting [4]) and 112% in test [3] (HEK293, percent of maximal response to GLP-1(7-36)NH2, 37° C., 0.1% bovine casein, arithmetic mean). In addition, the EC50 in test [1] (incubated at 37° C.) was 0.0182 nM; in test [2] (setting [5]) it was above 9950 nM; in test [2] (cAMP, incubated at 37° C., 0.1% bovine casein (no human serum albumin)) it was above 9950 nM; in test [3] (incubated at 37° C.) it was 0.319 nM.

`CC[C@H](C)[C@H](NC(=O)[C@H](CCCN)NC(=O)[C@H](CC(=O)O)NC(=O)[C@H](CC(C)C)NC(=O)[C@](C)(CC(C)C)NC(=O)[C@@H](NC(=O)C(C)(C)NC(=O)[C@H](Cc1ccncc1)NC(=O)[C@H](CC(=O)O)NC(=O)[C@H](CO)NC(=O)[C@@H](NC(=O)[C@](C)(Cc1ccccc1F)NC(=O)[C@@H](NC(=O)CNC(=O)[C@H](CCC(=O)O)NC(=O)C(C)(C)NC(=O)[C@@H](N)Cc1ccc(O)cc1)[C@@H](C)O)[C@@H](C)O)[C@@H](C)CC)C(=O)N[C@@H](C)C(=O)N[C@@H](CCC(N)=O)C(=O)NC(C)(C)C(=O)N[C@@H](CCCN)C(=O)N[C@@H](Cc1ccccc1)C(=O)N[C@H](C(=O)N[C@@H](CCCCNC(=O)COCCOCCNC(=O)COCCOCCNC(=O)CC[C@H](NC(=O)CCCCCCCCCCCCC(=O)O)C(=O)O)C(=O)N[C@@](C)(Cc1ccc(O)cc1)C(=O)N[C@@H](CC(C)C)C(=O)N[C@H](C(=O)N[C@@H](CCCCNC(=O)COCCOCCNC(=O)COCCOCCNC(=O)CC[C@H](NC(=O)CCCCCCCCCCCCC(=O)O)C(=O)O)C(=O)NCC(=O)NCC(=O)N1CCC[C@H]1C(=O)N[C@@H](CO)C(=O)N[C@@H](CO)C(=O)NCC(=O)N[C@@H](C)C(=O)N1CCC[C@H]1C(=O)N1CCC[C@H]1C(=O)N1CCC[C@H]1C(=O)N[C@@H](CO)C(N)=O)[C@@H](C)CC)[C@@H](C)CC` [Example 315] (H-Y[Aib]EGT[αMePhe(2-F)]TSD[4Pal][Aib]I[αMeL]LD[Orn]IAQ[Aib][Orn]FIK([AEEA-AEEA-γGlu-C14 diacid])[αMeY]LIK([AEEA-AEEA-γGlu-C14 diacid])GGPSSGAPPPS-NH2): the Emax came to 89.2% in test [1] (setting [4]), 93.5% in test [3] (setting [7]) and 98.9% in test [3] (setting [8]). Also, the EC50 is 0.0245 nM in test [1] (37° C.), above 9950 nM in test [2] (setting [5]), above 9950 nM in test [2] (setting [6]) and 0.376 nM in test [3] (37° C.).

Regarding `CC[C@H](C)[C@H](NC(=O)[C@H](CCCN)NC(=O)[C@H](CC(=O)O)NC(=O)[C@H](CC(C)C)NC(=O)[C@](C)(CC(C)C)NC(=O)[C@@H](NC(=O)[C@H](CO)NC(=O)[C@H](Cc1ccc(OC)cc1)NC(=O)[C@H](CC(=O)O)NC(=O)[C@H](CO)NC(=O)[C@@H](NC(=O)[C@](C)(Cc1ccccc1F)NC(=O)[C@@H](NC(=O)CNC(=O)[C@H](CCC(=O)O)NC(=O)C(C)(C)NC(=O)[C@@H](N)Cc1ccc(O)cc1)[C@@H](C)O)[C@@H](C)O)[C@@H](C)CC)C(=O)N[C@@H](C)C(=O)N[C@@H](CCC(N)=O)C(=O)NC(C)(C)C(=O)N[C@@H](CCCCNC(=O)COCCOCCNC(=O)COCCOCCNC(=O)CCCCCCCCCCCCC(=O)O)C(=O)N[C@@H](Cc1ccccc1)C(=O)N[C@H](C(=O)N[C@H](CCC(=O)O)C(=O)N[C@@](C)(Cc1ccc(O)cc1)C(=O)N[C@@H](CC(C)C)C(=O)N[C@H](C(=O)N[C@@H](CCC(=O)O)C(=O)NCC(=O)NCC(=O)N1CCC[C@H]1C(=O)N[C@@H](CO)C(=O)N[C@@H](CO)C(=O)NCC(=O)N[C@@H](C)C(=O)N1CCC[C@H]1C(=O)N1CCC[C@H]1C(=O)N1CCC[C@H]1C(=O)N[C@@H](CO)C(=O)N[C@@H](CCCCNC(=O)COCCOCCNC(=O)COCCOCCNC(=O)CCCCCCCCCCCCC(=O)O)C(N)=O)[C@@H](C)CC)[C@@H](C)CC` [Example 268] (H-Y[Aib]EGT[αMePhe(2-F)]TSDY(Me)SI[αMeL]LD[Orn]IAQ[Aib]K([AEEA-AEEA-C14 diacid])FI[dE][αMeY]LIEGGPSSGAPPPSK([AEEA-AEEA-C14 diacid])-NH2), the maximal response (Emax) in test [1] (setting [4]) came to 92.3%; in test [3] (setting [8]), 112%. Moreover, the EC50 is 0.0265 nM in test [1] (37° C.), above 9950 nM in test [2] (setting [5]) and above 9950 nM in test [2] (setting [6]).
